Test results as given in US8673913B2, “SHP-2 phosphatase inhibitor” (Case Western Reserve University, priority 2009, dated 2014).

System: JMML patient bone marrow cells
Test: JMML bone marrow cells cultured with GM-CSF (MTS), FIG. 15
Assay type: cell-based
Conditions: DMEM with GM-CSF
Method: FIG. 15 illustrates inhibition of growth factor-independent colony formation of myeloid progenitors with SHP-2 activating mutation E76K by active compounds. JMML patient bone marrow cells were harvested from mutant mice with SHP-2 E76K mutation and were cultured in DMEM medium supplemented GM-CSF. DMSO was included at negative controls. Cell numbers were determined using the MTS assay. Shown are the results of a representative compound #324.

Cc1cc(C)c2[nH]c3nc(SCC(=O)Nc4cccc5ccccc45)nnc3c2c1 [#324]
growth of JMML bone marrow cells with GM-CSF (FIG. 15): inhibition
